The test system of assay [1] is HLE cells. In words: Growth inhibition assay (MTT), HLE. Format: cell-based, human. Conditions: Homo sapiens. On the procedure:
The effect of IMSs (IBN-15, IBN-19, IBN-24, IBN-25 and IBN-32) on the proliferative properties of p53 mutant cell line HLE was examined. The cytotoxicity activity and proliferation inhibition of IMSs in tumor cells were measured by MTT. […] The control experiments with DMSO alone (0.05% v/v) had no effect on cell proliferation. […] (Table 4) Microscopic observation on the cell cultures visually confirmed the inhibition on cell proliferation by IMSs. (FIG. 35)

Assay [2] concerns HLE cells. In words: Apoptosis assay (Annexin V-FITC/PI flow cytometry). Format: cell-based, human. Conditions: 72 h, IBN-15 60 μM, IBN-19 90 μM, IBN-24 90 μM, IBN-25 30 μM, IBN-32 20 μM, DMSO 0.045%. The method, then: FIG. 36. IMSs induce apoptosis in Hepatocarcinoma cells. A) Cells were treated with vehicle and IBN 15, IBN 19, IBM 24, IBN 25 and IBN 32 for 72 h, and apoptosis was quantified using Annexin V-FITC/PI staining followed by flow cytometric analysis. 10,000 cells were detected for every sample. Living cells are in the bottom left quadrants (FITC− and PI−), early apoptotic cells in the bottom right quadrants (FITC+ and PI−), and late apoptotic cells in the upper right quadrants (apoptotic FITC+ and PI+). B) The percentage of apoptotic cells with respect to different IMSs.
To determine apoptosis analysis, 4×10^5 cells were plated in 10 cm dish. […] The floating and trypsinized adherent cells were collected and the apoptosis was quantified using Annexin V-FITC reagent (BD Biosciences Pharmingen) and PI (Invitrogen) following the manufacturer's protocol. Briefly, the cells were washed twice with cold PBS and then resuspend cell in 100 μl of × binding buffer containing a 10 μl of Annexin V-FITC (BD-Pharminagen) and 2 μl of PI from the stock of 100 μg/ml. The cells were gently vortexed and incubated for 15 min at room temperature in the dark. Subsequently 400 μl of 1× binding buffer were added to each tube, and the samples were immediately analyzed by FACScan flow cytometer (Becton Dickinson). The fluorescent signals of the Annexin-V conjugate and PI were detected at channels of fluorescence intensity FL1 and FL2 (BD LSR II with software BD).
Cells undergoing apoptosis would stain positive for Annexin and negative for PI (quadrant 4, Q4). Cells which stained positive for both Annexin V-FITC and PI (Q2) are either at the end stage of apoptosis or undergoing necrosis, and those which stained negative for both Annexin V-FITC and PI (Q3) were alive or undergoing undetectable apoptosis. In contrast, cell debris stained only for PI (Q1).
(A flow cytometer gives signals particle by particle.)

Assay [3] deals with HLE cells. Nature of the assay: Cell cycle analysis (PI flow cytometry). It counts as cell-based, human. Conditions: 72 h; for cells in the S phase: at respective IC-50, control 24%; for cells in the G2/M phase: at respective IC-50, control 30%; for cells in the G1 phase: at respective IC-50, control 50%. On the procedure:
FIG. 37. IMSs arrest Hepatocarcinoma cells. Cells were treated with vehicle and IBN 15, IBN 19, IBN 24, IBN 25 and IBN 32 for 72 h, and cell cycle distribution was assessed by flow cytometry. A) Example FACS profiles of propidium iodide-stained control cells, and cells treated with IMSs respectively. B) % of cells in cell cycle phase C) % of cells in subG0 population. Each value is the mean±S.D. of three determinations.
To perform cell cycle distribution analysis, 4×10^5 cells were plated in 10 cm dish. The cells (70% confluence) were serum-starved for 24 h to synchronize them in the G0 phase of the cell cycle. After 24 h incubation, the cells were replaced with fresh 10% DMEM medium and then treated 60 μM of IBN-15, 90 μM of IBN-19, 90 μM of IBN-24, 30 μM of […] and 20 μM of IBN-32) and 0.045% DMSO as control for 72 h. The floating and trypsinized adherent cells were collected and washed with PBS. The cell pellets were resuspended in 1 ml of PBS and fixed by the addition of 70% ice-cold ethanol and stored at −20° C. After incubation for 24 hr, the cells were re-pelleted by centrifugation, the cells were washed once with PBS and resuspended in 0.1 mL of PBS containing 100 μg/ml of RNase and then incubated at 37° C. for 15 min. Finally, the cells were stained with 0.5 ml of PI solution (100 μg/mL in PBS) for 30 min. Cell cycle distribution was detected by a BD FACS array flow cytometer (Becton Dickinson). Cells with sub-G0 DNA were classified as apoptotic cells.

Assay [4] deals with HSC-T6 cells. Nature of the assay: Cellular ROS determination (DCF labeling). Conditions: EGCG 25 μM, NAC 1 mM, 48 h. It counts as cell-based, rat. On the procedure: FIG. 2. (a) DBZIM and (b) TDBZIM attenuated cellular ROS level. HSC T6 cells were incubated with DBZIM (10, 50, 100 and 300 μM), TDBZIM (10, 50 and 100 μM), NAC (1 mM) and EGCG (25 μM) for 48 h before assaying for cellular ROS levels. The data were presented as relative values after normalizing against a vehicle control. The data were presented as mean and SEM, N=6, *^bP<0.01, *^cP<0.005, and *^dP<0.0005 when compared to the vehicle, control.
The ROS level of treated HSC-T6 cells was determined using the dichlorofluorescein (DCF) labeling method (Molecular Probes Inc., OR, USA). Cultured cells were harvested by trypsinization, and resuspended in phenol red-free DMEM (Invitrogen). Cells were then incubated with 10 μg/ml of 2′,7′-dichloro-fluorescein diacetate (DCFH-DA) in DMEM for 15 min before resuspension in DMEM for assaying. Cell solution was dispensed into a black-wall 96-well pate in triplicate for fluorescence readout at Ex=485 nm and Em=530 nm with a Tecan Safire II plate reader. The fluorescence unit was normalized against viable cell numbers, which were determined using 3-(4,5-dimethylthiazol-2-yl)-2,5-diphenyl tetrazolium bromide (MTT assay, Promega, Wis., USA). Cellular ROS level was expressed relative to the control sample.

Assay [5] deals with HSC-T6 cells. In words: Glutathione (GSH) and GSSG assays. It counts as cell-based, rat. The following applies: EGCG 25 μM, NAC 5 mM, 48 h. The method, then: FIG. 3. […] (c) DBZIM and (d) TDBZIM both suppressed cellular GSSG (the oxidation product of GSH). (e) DBZIM and (f) TDBZIM both enhanced the GSH/GSSG ratio. HSC-T6 cells were incubated with compounds of various concentrations for 48 h, and assayed for the total GSH and GSSG amounts. The GSH/GSSG ratio was calculated as (GSH−GSSG)/GSSG. The GSH and GSSG amounts were normalized against the total protein. Note that DBZIM was dissolved in DMSO, and TDBZIM was dissolved in H2O. The data were presented as mean and SEM, N=6, *^aP<0.05, *^bP<0.01, *^cP<0.005, and *^dP<0.0005, when compared to the vehicle control.
Total cellular GSH and GSSG levels were determined by using assay kits from Cayman Chemical (Ann Arbor, Mich., USA) following the manufacturer's instructions. Briefly, HSC-T6 cells treated with DBZIM, TDBZIM, NAC, or EGCG were scalped and homogenized in phosphate buffered saline (PBS) by sonication at 60% frequency for 30 s, and the supernatant was collected after centrifugation at 16,000×g for 10 min at 4° C. Protein content of the samples was determined by bicinchonicic acid (BCA) assay.
For GSH assays, the protein sample was deproteinated by metaphosphoric acid (Aldrich, Catalog No. 23927-5), and the pH was adjusted by triethanolamine (Aldrich, Catalog No. T5830-0) according to the manual. The sample was ready for assaying total GSH including both the reduced and oxidized forms. Quantification of GSSG, exclusive of GSH, was performed by first derivatizing GSH with 2-vinylpyridine and assaying separately. Colorimetric signal was recorded at 405 nm with a Tecan Safire II plate reader. The levels of GSH or GSSG were determined as nmol/μg protein.

The subject of the next assay is GPx. In words: Glutathione peroxidase (GPx) activity assay in treated cells. Format: cell-based, rat. Conditions: EGCG 25 μM, NAC 5 mM. On the procedure: (§1) FIG. 4. Effect of DBZIM and TDBZIM on GPx, CAT, SOD and GST. DBZIM affected (a) GPx activity and (c) CAT activity in a dosage-dependent manner. TDBZIM suppressed (b) GPx activity and (d) CAT activity. (e) DBZIM and (f) TDBZIM had little effect on SOD activity. (g) DBZIM induced GST activity. HSC T6 cells were treated with compounds of various concentrations for 48 h, and homogenized by sonication (60% frequency for 30 s) in PBS (pH 7.4, 1 mM of EDTA) for GPx, GST and CAT assays, or in 20 mM of HEPES buffer containing 1 mM of EGTA, 210 mM of mannitol and 70 mM of sucrose (pH 7.2) for SOD assay. Enzyme activity was normalized against total protein. DBZIM was dissolved in DMSO, and TDBZIM was dissolved in H2O. The data were presented as mean and SEM, N=6, *^aP<0.05, *^bP<0.01, *^cP<0.005, and *^dP<0.0005, when compared to the vehicle control.
(§2) Activity levels of three anti-oxidant enzymes, GPx, CAT and SOD, were determined using assay kits from Cayman Chemical. To assay GPx and CAT activities, protein samples were harvested in ice-cold PBS containing 1 mM of EDTA. To assay SOD activity, protein samples were prepared in 20 mM of N-(2-hydroxyethyl)-piperazine-N′-2-ethanesulfonic acid (HEPES) buffer containing 1 mM of ethylene glycol-bis(2-aminoethylether)-N,N,N′,N′-tetraacetic acid (EGTA), 210 mM of mannitol and 70 mM of sucrose. Protein content was determined by BCA assay.
GPx activity was indirectly measured by a coupled reaction with GSH reductase. Oxidized GSH, produced upon reduction of H2O2 by GPx, is recycled to its reduced state by glutathione reductase (GR) and nicotinamide adenine dinucleotide phosphate (NADPH). The oxidation of NAPDH is proportional to the GPx activity, and can be measured as a decrease in absorbance at 340 nm. GPx activity was expressed as nmol/min/mg protein.

The subject of another assay is CAT. Nature of the assay: Catalase (CAT) activity assay in treated cells. It counts as cell-based, rat. The following applies: EGCG, NAC (FIG. 4c). On the procedure: FIG. 4. […] Enzyme activity was normalized against total protein. DBZIM was dissolved in DMSO, and TDBZIM was dissolved in H2O. The data were presented as mean and SEM, N=6, *^aP<0.05, *^bP<0.01, *^cP<0.005, and *^dP<0.0005, when compared to the vehicle control.
Activity levels of three anti-oxidant enzymes, GPx, CAT and SOD, were determined using assay kits from Cayman Chemical. To assay GPx and CAT activities, protein samples were harvested in ice-cold PBS containing 1 mM of EDTA. […] Protein content was determined by BCA assay.
CAT activity was determined based on reaction of the enzyme with methanol in the presence of H2O2. The formaldehyde produced was measured spectrophotometrically at 540 nm using Purpald as the chromogen. CAT activity was expressed as nmol/min/mg protein.

The subject of another assay is SOD. Nature of the assay: Superoxide dismutase (SOD) activity assay in treated cells. Format: cell-based, rat. The following applies: HSC T6 cells, 48 h. The method, then:
as §1, §2
Total SOD, including all three types of SOD (Cu/Zn-, Mn- and Fe-SOD), was quantified using a tetrazolium salt to detect superoxide radicals generated by xanthine oxidase and hyposanthine. […] SOD activity was expressed as U/mg protein.

The test system of another assay is GST. Nature of the assay: Glutathione S-transferase (GST) assay in treated cells. It counts as cell-based, rat. The following applies: EGCG, NAC. On the procedure: as §1
The activity of phase II anti-oxidant enzyme, GST, was assayed using a kit from Cayman Chemical. Protein samples were harvested in PBS buffer containing 1 mM of EDTA, and the protein concentration was determined by BCA assay. Total GST (cytosolic and microsomal) activity was assayed by measuring the conjugation of 1-chloro-2,4-dinitobenzene (CDNB) with reduced GSH, and monitored by an increase in absorbance at 340 nm. GST activity was expressed as nmol/min/mg protein.

The record followed here is patent publication US9072729B2, “Method for treating fibrosis and cancer with imidazolium and imidazolinium compounds” (Agency for Science, Technology and Research, priority 2008, dated 2015).

Regarding `[Br-].c1ccc(Cn2c[n+](Cc3ccccc3)cc2-c2ccccc2)cc1` [IBN-15, 1,3-Dibenzyl-5-phenylimidazolium bromide], the half-maximal inhibitory concentration (IC50) with HLE cells [1] (72 h) worked out at 60 µM. The same molecule displayed a 50% inhibitory concentration (IC50) in the assay on HLE cells [1] (120 h) of 20 µM. For the same molecule, the “cell apoptosis (Q2)” value with HLE cells [2] amounted to 33%. For the same molecule, in the assay with HLE cells [3], the “cells in the S phase” value is on record as 19.7%, the “cells in the G2/M phase” value is recorded as 21% and the “cells in the G1 phase” value is 42%.

Consider `[Br-].c1ccc(CCn2cc[n+](CCc3ccccc3)c2)cc1` [IBN-32, 1,3-di(2-phenylethyl)-imidazolium bromide], for which 20 µM corresponded to half-maximal inhibition in the assay with HLE cells [1] (72 h) (IC50). Also, the midpoint of inhibition in the assay with HLE cells [1] (120 h), the IC50, lay at 20 µM. Further, the “cell apoptosis (Q2)” value in the assay with HLE cells [2] was found to be 18%. Further, in the assay with HLE cells [3], the “cells in the S phase” value is 14.6%, the “cells in the G2/M phase” value is listed as 18.9% and the “cells in the G1 phase” value is given as 32.3%.

For the molecule `CC(=O)N[C@@H](CS)C(=O)O` [NAC, N-acetyl-L-cysteine, reference compound], the “attenuation of cellular ROS level (references)” value with HSC-T6 cells [4] was “did not show apparent inhibition”. Moreover, in the assay on HSC-T6 cells [5], the “reduction of GSSG (references)” value was “had no effect”, the “increase in GSH/GSSG ratio (references)” value is recorded as “no change” and the “induction of total GSH (references)” value is reported as “did not show any effect”. The “attenuation of GPx activity (references)” value in the assay with GPx is listed as “did not show much effect”. In addition, the “suppression of CAT activity (references)” value with CAT turned out to be 35%. Besides, the “effect on SOD activity” value in the assay with SOD is recorded as “did not show much effect”. Further, the “effect on GST activity (references)” value in the assay with GST is reported as “did not have much affect”.

As usually defined, the IC50 is the midpoint of a concentration-inhibition curve.
